Entries after “also recorded” stand apart in the source; their conditions may differ.
Test system: healthy mice
Test: MicroPET/CT biodistribution in healthy mice
Format: in vivo
Conditions: PET/CT

SMILES: OC[C@H]1OC(O)[C@H](F)[C@@H](O)[C@@H]1O (some centres unmarked) [[^18F]FDG, fluorodeoxyglucose]
- site of uptake, metabolism and elimination: typical metabolism in the heart, brain, and brown fat; also recorded: uptake was observed in the brain and heart
- uptake in the center of the brain: about 1.6 SUV
- uptake in the center of the heart: about 2.7 SUV
- brain uptake of [18F]FDG relative to [18F]Glc1 (center of the brain): about 20 times
- heart uptake of [18F]FDG relative to [18F]Glc1 (center of the heart): about 14 times
